Measurements reported in PubChem BioAssay AID1963982 (Molecular Pharmacology Branch, DTP, NCI, 2024).
One block for each molecule: values may come before it.

Test system: 313798-341-R-J2-PDC spheroids, viability
Assay: Anticancer human tumor 313798-341-R-J2-PDC patient-derived cervical squamous cell carcinoma cell line growth inhibition [PI3K]
Conditions: spheroids with HUVEC and MSC; for IC50: curve of first compound; for viability, T/C: stronger effect = lower value
In short: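 Multi-cell spheroids combine tumor cells with HUVEC and human MSCs, treated with targeted agents alone or with inavolisib, alpelisib, duvelisib or copanlisib. Concentrations fall in half-log steps from at or near clinical Cmax, or from 10 microM where Cmax is unknown; viability read-out.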
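Note: spheroids exposed to compounds for seven days.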
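Throughout, for viability, T/C: 100% = DMSO vehicle control viability.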

IC50 (second compound 0.0316 µM): > 10 µM
IC50 (second compound 0.1 µM): > 10 µM
IC50 (second compound 0.316 µM): > 10 µM
IC50 (second compound 1 µM): > 10 µM
IC50 (second compound 3.16 µM): > 10 µM
IC50 (second compound 10 µM): < 0.0316 µM
SMILES: CNC(=O)c1ccc(N2C(=S)N(c3ccc(C#N)c(C(F)(F)F)c3)C(=O)C2(C)C)cc1F + Cc1nc(NC(=O)N2CCCC2C(N)=O)sc1-c1ccnc(C(C)(C)C(F)(F)F)c1
viability, T/C (second compound 0.0316 µM, first compound 0.0316 µM): 97.5%
viability, T/C (second compound 0.0316 µM, first compound 0.1 µM): 104%
viability, T/C (second compound 0.0316 µM, first compound 0.316 µM): 92.3%
viability, T/C (second compound 0.0316 µM, first compound 1 µM): 107%
viability, T/C (second compound 0.0316 µM, first compound 3.16 µM): 119%
viability, T/C (second compound 0.0316 µM, first compound 10 µM): 88.4%
viability, T/C (second compound 0.1 µM, first compound 0.0316 µM): 116%
viability, T/C (second compound 0.1 µM, first compound 0.1 µM): 101%
viability, T/C (second compound 0.1 µM, first compound 0.316 µM): 99.5%
viability, T/C (second compound 0.1 µM, first compound 1 µM): 105%
viability, T/C (second compound 0.1 µM, first compound 3.16 µM): 111%
viability, T/C (second compound 0.1 µM, first compound 10 µM): 114%
viability, T/C (second compound 0.316 µM, first compound 0.0316 µM): 104%
viability, T/C (second compound 0.316 µM, first compound 0.1 µM): 104%
viability, T/C (second compound 0.316 µM, first compound 0.316 µM): 107%
viability, T/C (second compound 0.316 µM, first compound 1 µM): 102%
viability, T/C (second compound 0.316 µM, first compound 3.16 µM): 117%
viability, T/C (second compound 0.316 µM, first compound 10 µM): 111%
viability, T/C (second compound 1 µM, first compound 0.0316 µM): 94.3%
viability, T/C (second compound 1 µM, first compound 0.1 µM): 89.4%
viability, T/C (second compound 1 µM, first compound 0.316 µM): 96.2%
viability, T/C (second compound 1 µM, first compound 1 µM): 96%
viability, T/C (second compound 1 µM, first compound 3.16 µM): 90.3%
viability, T/C (second compound 1 µM, first compound 10 µM): 90.4%
viability, T/C (second compound 3.16 µM, first compound 0.0316 µM): 67.4%
viability, T/C (second compound 3.16 µM, first compound 0.1 µM): 64.7%
viability, T/C (second compound 3.16 µM, first compound 0.316 µM): 65.9%
viability, T/C (second compound 3.16 µM, first compound 1 µM): 64.9%
viability, T/C (second compound 3.16 µM, first compound 3.16 µM): 61.5%
viability, T/C (second compound 3.16 µM, first compound 10 µM): 54.5%
viability, T/C (second compound 10 µM, first compound 0.0316 µM): 36%
viability, T/C (second compound 10 µM, first compound 0.1 µM): 39.3%
viability, T/C (second compound 10 µM, first compound 0.316 µM): 38.5%
viability, T/C (second compound 10 µM, first compound 1 µM): 36.8%
viability, T/C (second compound 10 µM, first compound 3.16 µM): 35.5%
viability, T/C (second compound 10 µM, first compound 10 µM): 33%

IC50 (second compound 0.0316 µM): > 3 µM
IC50 (second compound 0.1 µM): > 3 µM
IC50 (second compound 0.316 µM): > 3 µM
IC50 (second compound 1 µM): 2.79 µM
IC50 (second compound 3.16 µM): 0.1 µM
IC50 (second compound 10 µM): < 0.00949 µM
SMILES: Cn1cnc2c(F)c(Nc3ccc(Br)cc3Cl)c(C(=O)NOCCO)cc21 + Cc1nc(NC(=O)N2CCCC2C(N)=O)sc1-c1ccnc(C(C)(C)C(F)(F)F)c1
viability, T/C (second compound 0.0316 µM, first compound 0.00949 µM): 98.8%
viability, T/C (second compound 0.0316 µM, first compound 0.03 µM): 95.7%
viability, T/C (second compound 0.0316 µM, first compound 0.0949 µM): 95.7%
viability, T/C (second compound 0.0316 µM, first compound 0.3 µM): 98.7%
viability, T/C (second compound 0.0316 µM, first compound 0.949 µM): 98.6%
viability, T/C (second compound 0.0316 µM, first compound 3 µM): 81.5%
viability, T/C (second compound 0.1 µM, first compound 0.00949 µM): 105%
viability, T/C (second compound 0.1 µM, first compound 0.03 µM): 102%
viability, T/C (second compound 0.1 µM, first compound 0.0949 µM): 98%
viability, T/C (second compound 0.1 µM, first compound 0.3 µM): 107%
viability, T/C (second compound 0.1 µM, first compound 0.949 µM): 99.4%
viability, T/C (second compound 0.1 µM, first compound 3 µM): 83.7%
viability, T/C (second compound 0.316 µM, first compound 0.00949 µM): 109%
viability, T/C (second compound 0.316 µM, first compound 0.03 µM): 99.7%
viability, T/C (second compound 0.316 µM, first compound 0.0949 µM): 98.6%
viability, T/C (second compound 0.316 µM, first compound 0.3 µM): 100%
viability, T/C (second compound 0.316 µM, first compound 0.949 µM): 92.6%
viability, T/C (second compound 0.316 µM, first compound 3 µM): 70.9%
viability, T/C (second compound 1 µM, first compound 0.00949 µM): 84%
viability, T/C (second compound 1 µM, first compound 0.03 µM): 79.1%
viability, T/C (second compound 1 µM, first compound 0.0949 µM): 71.4%
viability, T/C (second compound 1 µM, first compound 0.3 µM): 76.5%
viability, T/C (second compound 1 µM, first compound 0.949 µM): 68.7%
viability, T/C (second compound 1 µM, first compound 3 µM): 48.4%
viability, T/C (second compound 3.16 µM, first compound 0.00949 µM): 55.3%
viability, T/C (second compound 3.16 µM, first compound 0.03 µM): 50.3%
viability, T/C (second compound 3.16 µM, first compound 0.0949 µM): 50.7%
viability, T/C (second compound 3.16 µM, first compound 0.3 µM): 47.5%
viability, T/C (second compound 3.16 µM, first compound 0.949 µM): 39.9%
viability, T/C (second compound 3.16 µM, first compound 3 µM): 32.8%
viability, T/C (second compound 10 µM, first compound 0.00949 µM): 32.2%
viability, T/C (second compound 10 µM, first compound 0.03 µM): 25.8%
viability, T/C (second compound 10 µM, first compound 0.0949 µM): 23%
viability, T/C (second compound 10 µM, first compound 0.3 µM): 24.3%
viability, T/C (second compound 10 µM, first compound 0.949 µM): 17.1%
viability, T/C (second compound 10 µM, first compound 3 µM): 10.4%
